In a melting point compilation (Tetko et al.; mined from patent text by program, amines drawn as free bases though some values may be those of a salt) one finds melting point data, which are given here for 89 compounds.

A value given as a limit tells only on which side of the number the result lay.

A word on the melting point: it is the temperature, or range, at which the solid turns liquid. In the case of `CC(C)NCC(O)c1ccc(N)c(C#N)c1` (centres undefined), the melting point fell in the range of 159 to 161 °C.
Take `CN(OCC(=O)O)C(=S)NC(c1ccccc1)c1ccccc1`: the melting point fell in the range of 160 to 162 °C.
With `C#CCC(c1ccc(Cl)cc1Cl)C(O)(C(C)=O)c1cccnc1` (centres undefined) the figure was 132 °C; with `CC#Cc1cn(C2OC(COC(C)=O)C(OC(C)=O)C2OC(C)=O)c(=O)[nH]c1=O` (centres undefined), 150 to 157 °C.
With `COC(=O)Nc1ccc2ccccc2c1-c1c(P(=O)(c2ccccc2)c2ccccc2)ccc2ccccc12` the figure was 128 °C; with `CNC(=O)C(=NOC)c1ccccc1ON=C(C)c1cccc(C)c1`, 109 to 111 °C.
The same measure for `CCOC(=O)CNC(=O)N(C(=O)NCC(=O)OCC)c1ccc(C(=O)/C=C/c2cc(OC)c(OC)c(-c3cccs3)c2)cc1`: 83 to 86 °C.
In turn, `CC(C)Oc1cccc(C2(C)CN(C)CCC2O)c1` (centres undefined) registered a melting point of 75 to 76 °C.
The same measure for `CC1(C(=O)O)c2ccccc2Oc2ccccc21`: 87 to 88 °C; for `O=C1c2cc([N+](=O)[O-])cc3c(N4CCCC4)c(Cl)cc(c23)C(=O)N1O`: 209 to 210 °C; for `COc1ccc(-c2c(Cl)c(CCl)nc3sc4c(c23)CCN(Cc2ccccc2)C4)cc1`: 194 to 195 °C.
With `COc1ccc(S/C(=C/C(=O)NO)CCCCc2ccccc2)cc1OC` the figure was 148 to 150 °C; with `CC(C)(C)[Si](C)(C)Oc1ccc2c(c1)C(=O)c1ccc(O[Si](C)(C)C(C)(C)C)cc1C2=O`, 131 to 133 °C.
For `COC(=O)CNC(=O)NCCCCC1CCSS1` (centres undefined), the melting point was 62 to 64 °C.
The same measure for `Nc1cccc2cc(-c3ccccn3)[nH]c12`: 165 to 166 °C; for `CCN1c2ncccc2C(=O)Nc2c(C)cc(NCCn3cc[nH]c3=O)nc21`: greater than 300 °C; for `NC(=S)NN=C(CCC(=O)NC1CCCCC1)c1ccccc1`: 89 to 92 °C.
Compound `CCCCn1nc2c(N)nc3c(c2c1CCS(=O)(=O)CCC)CCCC3` showed a melting point of 173 to 175 °C.
The same measure for `COC(=O)c1ccc2oc(CCC=O)cc2c1`: 48 to 49 °C; for `CC(=O)NNc1nc(-c2ccccc2)c2cc(Cl)ccc2n1`: 228 °C; for `O=C1OC2(CC(c3cccc(-c4ccccc4)c3)=NO2)c2ccccc21` (centres undefined): 152 to 159 °C.
The same measure for `CC(C)n1nc(-c2cc(C(=O)N3CCOCC3)cnc2-c2ccccc2)ccc1=O`: 132 to 133 °C; for `CCOC(=O)c1c(C)c[nH]c1C`: 74 to 76 °C.
With `CC1(C)CCC(C)(C)c2cc(-c3cc(-c4ccc(C(=O)O)cc4)ccc3OCCCNC3CC3)ccc21` the figure was 192 °C; with `CCSc1nsc(NC(=O)N(C)C)c1C(N)=O`, 147 °C; with `CC(C)(O)c1onc(-c2ccccc2Cl)c1C(=O)c1nnn(Cc2cc(F)cc(C(F)(F)F)c2)c1-c1cccnc1`, 180 °C.
In turn, `CCCCCc1c(C(C)C)nc(C(C)C)c(CO)c1-c1cccc(O)c1` had a melting point of 121 to 122 °C.
With `CCC(=O)Nc1cc(-c2c(-c3ccc(Cl)cc3)nc3cccnn23)ccn1` the figure was 204 to 205 °C.
The same measure for `COc1ccc(C(O)(C(F)(F)F)C(F)(F)F)cc1C=CC(=O)O`: 184 to 186 °C; for `O=C(NCCCCCCNC(=O)c1ccc(O)cc1)c1ccc(O)cc1`: 220 to 222 °C; for `CN(C)CCOc1nccc(-c2c(-c3ccc(F)cc3)ncn2C2CCC(=O)CC2)n1`: 84 to 86 °C.
With `CCON1CCC2(CC1)NC(=O)C(c1c(C)cc(C)cc1C)=C2OC(=O)C(C)(C)C` the figure was 230 to 231 °C; with `CCOC(=O)C(=CNCc1cnsn1)C(=O)c1cc(F)c(F)cc1F`, 168 to 170 °C; with `NS(=O)(=O)c1cccc(-c2noc(-c3cnc4c(C(F)(F)F)cc(-c5ccc(C(F)(F)F)cc5)cn34)n2)c1`, 297 °C.
The compound `N#Cc1cc([N+](=O)[O-])ccc1Oc1ccc(C(=O)c2ccccc2)cc1` came in with a melting point of 180 °C.
`Cc1cc(O)cc2cc(-c3ccc(O)c(F)c3)oc12` had a melting point of 196 to 198 °C.
The same measure for `O=c1[nH]c2ncc(-c3ccc4[nH]ccc4c3)nc2n1CC1CCCCC1`: 343 to 346 °C; for `CSCCNC(=O)c1cccc(-c2cccc3cc(Cc4cccc(C(F)(F)F)c4)oc23)c1`: 135 to 138 °C.
In turn, `Cc1cccc(-c2c3c(cc4ccc5c(c24)OCO5)C(=O)NC3)c1` came in with a melting point of 244 to 246 °C.
The same measure for `O=C(CNc1c(C(=O)O)[nH]c2cc(Cl)cc(Cl)c12)c1cccc(F)c1`: 270 to 280 °C; for `COc1cc(C)c(C(=O)c2c(OC)cnc(Br)c2Cl)c(OC)c1OC`: 97 to 99 °C; for `C[C@@H](Nc1c(NCc2ccc(F)cc2)c(=O)c1=O)C(C)(C)C`: 289 to 291 °C.
`CSc1ncc(CO)c(N)n1` returned a melting point of 124 to 127 °C.
As to `Cc1cc(C2=C(C=CC3CC(O)CC(=O)O3)C(C)(C)CC(N3C(=O)CCC3=O)C2)ccc1F` (centres undefined), the melting point lay within 71 to 77 °C.
With `CCN(CC)CCN1C(=O)Nc2ncccc2C1c1ccccc1` (centres undefined) the figure was 160 to 162 °C; with `Nc1nnc2ccccc2n1`, 208 to 210 °C; with `CN1c2ccccc2C(C)(C)C12CNc1c(cc(N3CCCCC3)c3oc4ccccc4c13)O2` (centres undefined), 214 to 216 °C.
With `CCC(CC)c1ccc(Cl)c2nc3n(c12)CCCCN3c1cnc(N(C)C)cc1C` the figure was 156 to 157 °C; with `CCC1(CCC(=O)OC)CCCN2CCc3c([nH]c4ccccc34)C21` (centres undefined), 110 °C.
The compound `Nc1ccc([C@H]2CC[C@H](NCCCc3ccccc3)CC2)cc1` gave a melting point of 60 to 63 °C.
With `CCC(COC)n1cc(Cl)nc(N2CCc3cc(OC)cc(Cl)c32)c1=O` (centres undefined) the figure was 126 to 128 °C; with `CN1CCN(c2cccc3c2CC[C@@H](NC(=O)c2ccc(N4CCOCC4)cc2)C3)CC1`, 127 to 128 °C.
The same measure for `Cc1cccc2nc(C)n(-c3ccccc3)c12`: 107 to 109 °C; for `COc1cc2c3c(n(CCCCO)c(=O)c2cc1OC)-c1cc2c(cc1C3=O)OCO2`: 304 to 308 °C; for `CC1(C)C(=O)Nc2cc3c(cc21)OC(O)N3` (centres undefined): 297 to 299 °C.
The same measure for `O=c1c2cc(O)ccc2nc(C(S)c2ncnc3[nH]cnc23)n1-c1ccccc1Cl` (centres undefined): 186 to 214 °C; for `CCOC(=O)c1cnc2c(N)c(Cl)c(F)cc2c1O`: 268 to 270 °C; for `CC(=O)Nc1nc(C#N)cs1`: 185 to 188 °C.
Take `COc1cccc(CCNC(=O)c2ccc3c(c2)C=CC(C)(C)O3)c1`: the melting point is 105 to 110 °C.
The same measure for `CC(C)n1nc(-c2sc(NC(=O)Cn3ccnc3)nc2-c2ccccc2)ccc1=O`: 160 to 161 °C; for `COc1ccc(-c2nc(CN)no2)cc1`: 66 to 68 °C.
With `CNC(=O)[C@H](Cc1ccc(OC)cc1)NC(=O)[C@H](CC(C)C)N[C@H](CCC(=O)NCc1ccccc1)C(=O)O` the figure was 104 to 108 °C.
With `CC(C)(C)NC(=O)c1ccccc1C(c1ccc(O)cc1)c1ccc(O)cc1` the figure was 264 to 266 °C; with `O=C(NC1CC1)c1c(NC(=O)c2cc(C(F)(F)F)nn2-c2ncccc2Cl)ccc2cc[nH]c12`, 239 to 241 °C.
Regarding `O=C(O)C(O)c1cccc(COc2ccccc2Cl)c1COc1ccccc1Cl` (centres undefined), the melting point was 101 to 103 °C.
With `Cc1ccn2nc(S(=O)(=O)Nc3c(Cl)cccc3Cl)nc2n1` the figure was 126 to 129 °C.
The same measure for `CC(=O)NNc1ccc(N=C=S)cc1`: 172 to 174 °C.
The same measure for `CC(=O)N(CCCCCC(=O)O)C(c1ccccc1)c1ccccc1`: 119 to 120 °C; for `CCCCCCCCCCCCCCCC(=O)Nc1c(C)cccc1C(=O)O`: 106 to 113 °C; for `CC(=O)Oc1ccc(C(F)(F)C(F)(F)C(F)(F)I)cc1`: 75 to 81 °C.
`O=c1ccc2c(Br)nccc2[nH]1`: the melting point was 272 to 274 °C.
With `CC(C)(C)OC(=O)c1ccc(C(=O)NS(=O)(=O)c2ccccc2)cc1` the figure was 141 to 143 °C; with `OC/C=C/c1ccc(O)cc1`, 116 to 118 °C; with `CS(=O)(=O)c1ccc(-c2c(F)c3cccccc-3c2-c2ccccc2)cc1`, 120 to 122 °C.
In turn, `O=C(NCC1CCN(CC2(C(=O)O)CCOCC2)CC1)N1C(=O)C2(CCCC2)c2ccccc21` yielded a melting point of 146 °C.
The same measure for `C=CCc1cc(C2=NNC(=O)CC2)ccc1OCC(O)CNC(C)C` (centres undefined): 94 to 96.5 °C.
With `CCOC(=O)c1cc2c3n(ccc-2n1)CC(C(C)(C)C)=N3` the figure was 276 to 278 °C.
The same measure for `CSC(=S)NN=Cc1c[nH]c(-c2ccccc2)n1`: 166 to 170 °C.
Compound `O=C(Nc1ccc2nc(CN3CCOCC3)ccc2c1)c1ccc(-c2ccccc2)cc1` displayed a melting point of 214 to 215 °C.
The same measure for `O=C(NCCCCCCOC(=O)N1CCC(OC(=O)N2CCCCC2)CC1)Oc1ccc(Oc2ccccc2)cc1`: 56 to 61 °C; for `C[C@@H](NC(=O)c1csc(-c2ccccc2)n1)[C@](O)(Cn1cncn1)c1ccc(F)cc1F`: 174 to 175 °C.
The same measure for `CCCCCCCCCCCCCCCCCCNC(=O)NCCCCCCN`: 123 to 168 °C; for `CC(=N)Nc1ccc(NC(C)=O)cc1`: 131 to 134 °C; for `CC(=O)O/N=C1\CCc2ccccc2C1=Cc1ccc(S(C)(=O)=O)cc1`: 70 to 73 °C.
The compound `CCOC(=O)Cn1ccn2nc(-c3ccccc3)cc12` had a melting point of 85 to 87 °C.
`Cc1ccc(C)n1CCNC(=S)Nc1ccc(C(=O)O)cc1` returned a melting point of 174 to 175 °C.
With `C[C@@H]1Cc2cc3c(cc2C(c2ccc([N+](=O)[O-])c(Cl)c2)=NN1C(=S)NN)OCO3` the figure was 126 to 127 °C; with `COc1ccc(Cl)nc1C(N)=O`, 223 to 224 °C; with `CCN(CC)c1nc(C(C)(C)C)nn1-c1c([N+](=O)[O-])cc(C(F)(F)F)cc1[N+](=O)[O-]`, 64 to 65 °C.
